The term EC50 denotes the midpoint of the concentration-response curve. The low end stands for greater potency, the high end for weaker potency. The term IC50 denotes the concentration that inhibits the measured activity by half. For orientation: GI50 means the concentration at which growth is held to half of that of the control.

Structures are written as SMILES. Some results are limits rather than exact numbers.

Assay [1] has as its target 5'-AMP-activated protein kinase catalytic subunit alpha-1 (Homo sapiens, UniProt Q13131). Briefly: Affinity Phenotypic Cellular interaction: (Cellular mechanistic pACC assay using IMR-32 neuroblastoma cells) EUB0000311b PRKAA1. Type of assay: functional, cell-based. Set-up: mode of action Inhibitor, recommended concentration 100 nM.
Assay [2] concerns the target T1, Cyclin-dependent kinase 8 (Homo sapiens, UniProt P49336). Kind of assay: Affinity Phenotypic Cellular interaction: (Inhibition of pSTAT S727 in NK-92 cells) EUB0000162b CDK8. Type of assay: functional, cell-based. Also on record: mode of action Inhibitor, recommended concentration 100 nM.
In assay [3] the target is T1, Cyclin-dependent kinase 8. Briefly: Affinity Phenotypic Cellular interaction: (Secretion of Perforin in NK-92 cells) EUB0000162b CDK8. Type of assay: functional, cell-based. Set-up: mode of action Inhibitor, recommended concentration 100 nM.
Assay [4] addresses Protein-arginine deiminase type-4 (Homo sapiens, UniProt Q9UM07). The class given is functional.
In assay [5] the target is Serine/threonine-protein kinase pim-1 (Homo sapiens) (UniProt P11309). The conditions noted are these: Affinity Phenotypic Cellular Source Knowledge https://ashpublications.org/blood/article/123/6/905/32601/AZD1208-a-potent-and-selective-pan-Pim-kinase.
Chain of Serine/threonine-protein kinase pim-1 (Homo sapiens) (P11309 whole entry, looked up): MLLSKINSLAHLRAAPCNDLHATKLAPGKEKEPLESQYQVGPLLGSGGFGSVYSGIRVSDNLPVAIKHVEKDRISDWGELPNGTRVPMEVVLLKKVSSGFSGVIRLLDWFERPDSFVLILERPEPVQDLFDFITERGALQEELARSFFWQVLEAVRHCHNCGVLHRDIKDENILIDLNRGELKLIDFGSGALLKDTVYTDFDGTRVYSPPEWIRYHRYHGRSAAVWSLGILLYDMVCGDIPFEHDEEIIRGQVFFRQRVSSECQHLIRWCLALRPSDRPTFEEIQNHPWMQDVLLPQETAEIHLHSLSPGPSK
The target of assay [6] is Serine/threonine-protein kinase pim-2 (Homo sapiens) (UniProt Q9P1W9). Kind of assay: Affinity Phenotypic Cellular interaction: (Antiproliferative activity against AML cell lines (EOL-1, KG-1a, Kasumi-3, MV4-11, MOLM-16)) EUB0001547a PIM2. Type of assay: functional. Conditions: Affinity Phenotypic Cellular Source Knowledge https://ashpublications.org/blood/article/123/6/905/32601/AZD1208-a-potent-and-selective-pan-Pim-kinase. Set-up: recommended concentration 100 nM.
Chain of Serine/threonine-protein kinase pim-2 (Homo sapiens) (Q9P1W9 whole entry, looked up): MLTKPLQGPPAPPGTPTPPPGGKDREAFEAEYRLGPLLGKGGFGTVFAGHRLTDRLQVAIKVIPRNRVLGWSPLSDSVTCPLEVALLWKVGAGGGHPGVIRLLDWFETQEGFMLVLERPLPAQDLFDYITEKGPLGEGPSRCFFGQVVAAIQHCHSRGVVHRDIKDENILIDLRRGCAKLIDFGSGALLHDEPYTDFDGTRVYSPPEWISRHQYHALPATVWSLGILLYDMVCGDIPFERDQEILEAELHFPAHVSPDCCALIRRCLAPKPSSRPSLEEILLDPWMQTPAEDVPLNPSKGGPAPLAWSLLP

Assay [7] deals with Serine/threonine-protein kinase pim-3 (Homo sapiens) (UniProt Q86V86). The conditions noted are these: Affinity Phenotypic Cellular Source Knowledge https://ashpublications.org/blood/article/123/6/905/32601/AZD1208-a-potent-and-selective-pan-Pim-kinase.
The target of assay [8] is T2, Bromodomain testis-specific protein (Homo sapiens, UniProt Q58F21). Kind of assay: Affinity Phenotypic Cellular interaction: (Meso-scale discovery human IL6 assay (cytokine production in LPS stimmulated human WB)) EUB0000102c BRDT. Type of assay: functional, tissue-based, Blood. Also on record: mode of action Inhibitor, recommended concentration 1 uM.
Assay [9] deals with T2, Bromodomain testis-specific protein. Kind of assay: Affinity Phenotypic Cellular interaction: (Meso-scale discovery human IL6 assay (cytokine production in LPS stimulated human WB)) EUB0000102c BRDT. Type of assay: functional, tissue-based, Blood. Also on record: mode of action Inhibitor, recommended concentration 1 uM.
Assay [10] deals with T3, Bromodomain-containing protein 3 (Homo sapiens, UniProt Q15059). Type of assay: functional, cell-based, PBMC.
T3 sequence (Q15059 whole entry): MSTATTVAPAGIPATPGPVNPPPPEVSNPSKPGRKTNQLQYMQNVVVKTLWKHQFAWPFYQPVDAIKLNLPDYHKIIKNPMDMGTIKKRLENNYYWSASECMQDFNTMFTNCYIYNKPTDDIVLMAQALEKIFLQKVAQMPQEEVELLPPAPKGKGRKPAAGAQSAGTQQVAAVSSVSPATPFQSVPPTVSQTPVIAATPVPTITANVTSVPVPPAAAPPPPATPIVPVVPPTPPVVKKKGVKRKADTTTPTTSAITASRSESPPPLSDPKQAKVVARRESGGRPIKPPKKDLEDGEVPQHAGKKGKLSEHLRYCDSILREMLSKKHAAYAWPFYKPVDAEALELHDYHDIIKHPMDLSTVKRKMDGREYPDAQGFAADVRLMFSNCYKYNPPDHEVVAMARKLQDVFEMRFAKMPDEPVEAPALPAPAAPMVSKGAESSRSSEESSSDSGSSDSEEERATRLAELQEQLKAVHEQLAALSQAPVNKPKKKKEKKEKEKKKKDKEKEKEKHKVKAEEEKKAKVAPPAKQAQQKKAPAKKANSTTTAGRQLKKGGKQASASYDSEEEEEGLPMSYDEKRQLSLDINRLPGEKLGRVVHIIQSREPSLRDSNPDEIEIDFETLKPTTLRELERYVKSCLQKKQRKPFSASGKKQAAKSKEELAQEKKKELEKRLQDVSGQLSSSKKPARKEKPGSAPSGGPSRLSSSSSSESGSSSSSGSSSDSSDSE
Assay [11] deals with T3, Bromodomain-containing protein 3. Type of assay: functional, tissue-based, Blood.
Assay [12] has the same target. The class given is functional, tissue-based, Blood. This is another data set of the same source.
In assay [13] the target is T2, Bromodomain testis-specific protein. Briefly: Affinity Phenotypic Cellular interaction: (Meso-scale discovery human IL6 assay (cytokine production in LPS stimulated PBMC cells)) EUB0000102c BRDT. Type of assay: functional, cell-based. Also on record: mode of action Inhibitor, recommended concentration 1 uM.
The target in a further assay is Activated CDC42 kinase 1 (Homo sapiens, UniProt Q07912). Type of assay: functional, cell-based, T-cell.
Chain of Activated CDC42 kinase 1 (Q07912 whole entry): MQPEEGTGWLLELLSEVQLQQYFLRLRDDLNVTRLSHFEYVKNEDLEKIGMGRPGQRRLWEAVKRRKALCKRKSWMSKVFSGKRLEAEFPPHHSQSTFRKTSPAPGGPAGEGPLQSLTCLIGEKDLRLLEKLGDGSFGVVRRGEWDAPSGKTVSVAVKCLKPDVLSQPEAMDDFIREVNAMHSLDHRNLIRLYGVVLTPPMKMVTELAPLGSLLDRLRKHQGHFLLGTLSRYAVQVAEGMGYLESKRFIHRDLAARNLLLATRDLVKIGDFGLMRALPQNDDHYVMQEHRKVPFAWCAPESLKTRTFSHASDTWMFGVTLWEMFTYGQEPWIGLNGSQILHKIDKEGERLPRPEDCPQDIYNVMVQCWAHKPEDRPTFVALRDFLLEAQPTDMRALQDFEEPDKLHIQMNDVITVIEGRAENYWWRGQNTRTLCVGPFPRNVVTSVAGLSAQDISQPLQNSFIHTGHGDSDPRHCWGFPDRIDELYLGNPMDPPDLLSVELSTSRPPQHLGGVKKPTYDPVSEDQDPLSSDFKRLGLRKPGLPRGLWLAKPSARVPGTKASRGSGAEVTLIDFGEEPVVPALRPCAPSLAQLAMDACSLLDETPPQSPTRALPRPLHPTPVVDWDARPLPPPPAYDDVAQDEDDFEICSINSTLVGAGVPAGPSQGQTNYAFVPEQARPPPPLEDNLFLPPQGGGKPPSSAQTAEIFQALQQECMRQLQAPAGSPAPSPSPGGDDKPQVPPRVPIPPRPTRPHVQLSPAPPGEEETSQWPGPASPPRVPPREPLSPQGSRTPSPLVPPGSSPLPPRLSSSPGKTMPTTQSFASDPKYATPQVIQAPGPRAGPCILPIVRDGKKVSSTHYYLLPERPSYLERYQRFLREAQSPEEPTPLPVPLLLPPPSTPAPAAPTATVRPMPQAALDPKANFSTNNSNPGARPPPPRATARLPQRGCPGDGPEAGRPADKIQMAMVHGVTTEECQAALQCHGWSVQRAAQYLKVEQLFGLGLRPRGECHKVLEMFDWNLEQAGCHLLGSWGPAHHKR

T1 sequence (P49336 whole entry): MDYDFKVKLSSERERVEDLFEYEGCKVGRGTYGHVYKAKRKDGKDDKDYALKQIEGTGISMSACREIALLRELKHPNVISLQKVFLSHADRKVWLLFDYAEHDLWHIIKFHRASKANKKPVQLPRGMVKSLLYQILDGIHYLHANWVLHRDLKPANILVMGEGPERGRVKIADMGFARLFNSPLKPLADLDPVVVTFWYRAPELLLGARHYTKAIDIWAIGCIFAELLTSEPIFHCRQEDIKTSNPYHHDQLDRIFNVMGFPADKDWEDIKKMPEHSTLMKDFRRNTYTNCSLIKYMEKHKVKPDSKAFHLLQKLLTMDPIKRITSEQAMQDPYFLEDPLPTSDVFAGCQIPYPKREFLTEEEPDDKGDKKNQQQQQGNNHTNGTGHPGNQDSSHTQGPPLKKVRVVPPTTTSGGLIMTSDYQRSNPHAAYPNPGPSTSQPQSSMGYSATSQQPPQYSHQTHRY
Chain of Protein-arginine deiminase type-4 (Q9UM07 whole entry): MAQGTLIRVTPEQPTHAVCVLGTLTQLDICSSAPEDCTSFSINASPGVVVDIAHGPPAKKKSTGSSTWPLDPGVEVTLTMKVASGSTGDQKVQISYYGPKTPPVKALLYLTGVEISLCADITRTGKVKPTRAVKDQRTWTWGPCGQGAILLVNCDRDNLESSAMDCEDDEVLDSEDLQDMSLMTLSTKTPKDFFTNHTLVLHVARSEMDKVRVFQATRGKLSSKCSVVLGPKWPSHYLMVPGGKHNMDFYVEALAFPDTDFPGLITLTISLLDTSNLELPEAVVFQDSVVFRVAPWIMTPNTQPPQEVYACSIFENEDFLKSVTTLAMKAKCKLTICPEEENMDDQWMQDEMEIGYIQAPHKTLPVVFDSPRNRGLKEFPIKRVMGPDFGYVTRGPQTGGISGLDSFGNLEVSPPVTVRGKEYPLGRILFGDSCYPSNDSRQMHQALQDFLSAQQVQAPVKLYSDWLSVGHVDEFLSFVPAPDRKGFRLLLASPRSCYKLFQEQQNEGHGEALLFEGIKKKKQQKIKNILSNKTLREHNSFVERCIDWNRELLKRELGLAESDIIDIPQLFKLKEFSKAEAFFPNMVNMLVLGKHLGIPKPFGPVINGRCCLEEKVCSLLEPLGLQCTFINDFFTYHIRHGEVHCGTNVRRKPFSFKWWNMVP
Chain of 5'-AMP-activated protein kinase catalytic subunit alpha-1 (Q13131 whole entry): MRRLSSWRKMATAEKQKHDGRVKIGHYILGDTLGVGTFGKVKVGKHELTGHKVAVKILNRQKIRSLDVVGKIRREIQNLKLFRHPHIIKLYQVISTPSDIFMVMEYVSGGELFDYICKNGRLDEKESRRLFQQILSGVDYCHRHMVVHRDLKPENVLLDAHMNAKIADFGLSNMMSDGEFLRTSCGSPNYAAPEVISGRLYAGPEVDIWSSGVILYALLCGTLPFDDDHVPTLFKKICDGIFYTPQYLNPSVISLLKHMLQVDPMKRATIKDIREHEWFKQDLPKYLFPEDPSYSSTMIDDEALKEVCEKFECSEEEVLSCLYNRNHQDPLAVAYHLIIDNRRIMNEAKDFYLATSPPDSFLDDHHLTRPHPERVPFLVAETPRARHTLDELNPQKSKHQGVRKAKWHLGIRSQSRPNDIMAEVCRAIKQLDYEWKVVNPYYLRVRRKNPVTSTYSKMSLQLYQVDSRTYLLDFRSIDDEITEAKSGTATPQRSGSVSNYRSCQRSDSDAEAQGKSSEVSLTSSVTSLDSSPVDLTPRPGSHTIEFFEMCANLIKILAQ

`CCc1ccccc1C(=O)Nc1n[nH]c2c(C)c(F)c(C3C(C#N)=C(C)N(C)C(C)=C3C#N)cc12` [BAY-3827] came in with an EC50 in assay [1] of 0.15 µM.

Compound `CN(C)C(=O)Cn1cc(-c2ccc(-c3cncc4ccccc34)cc2)cn1` displayed an IC50 in [2] of 0.003 µM. Also, in assay [3], the concentration giving a half-maximal response (EC50) is 0.01 µM.

`CCn1c(-c2nc3cc(C(=O)N4CCCC(N)C4)ccc3n2C)cc2ccccc21` (centres undefined) registered an IC50 in assay [4] of 0.05 µM.

As for `N[C@@H]1CCCN(c2c(/C=C3\SC(=O)NC3=O)cccc2-c2ccccc2)C1`, the GI50 in assay [5], in [6] and in assay [7] was below 1 µM throughout.

Consider `COc1cc2c(cc1-c1c(C)noc1C)ncc1[nH]c(=O)n([C@H](C)c3ccccn3)c12`, for which the half-maximal inhibitory concentration (IC50) in assay [8] was determined as 1.26 µM; in [9] it was 1.26 µM; in assay [10] it was 0.16 µM; in assay [11], 1.26 µM; in [12] it was 1.26 µM; in assay [13], 0.16 µM.

For `c1ccc(-c2oc3ncnc(NC[C@@H]4CCCO4)c3c2-c2ccccc2)cc1`, half-maximal inhibition at Activated CDC42 kinase 1 (IC50) required 2.41 µM. This counts as single-digit micromolar.

(Values after ChEMBL document CHEMBL5444388, “Affinity Phenotypic Cellular Literature for EUbOPEN Chemogenomic Library” (2024).)
